Target: NaV 1.8 channel (Homo sapiens, UniProt Q9Y5Y9)
Test: Activity against NaV 1.8 channel (optical membrane potential assay)
Format: cell-based
Method: Compounds of the invention are useful as antagonists of voltage-gated sodium ion channels. Antagonist properties of test compounds were assessed as follows. Cells expressing the NaV of interest were placed into microtiter plates. After an incubation period, the cells were stained with fluorescent dyes sensitive to the transmembrane potential. The test compounds were added to the microtiter plate. The cells were stimulated with either a chemical or electrical means to evoke a NaV dependent membrane potential change from unblocked channels, which was detected and measured with trans-membrane potential-sensitive dyes. Antagonists were detected as a decreased membrane potential response to the stimulus. The optical membrane potential assay utilized voltage-sensitive FRET sensors described by Gonzalez and Tsien (See, Gonzalez, J. E. and R. Y. Tsien (1995) “Voltage sensing by fluorescence resonance energy transfer in single cells” Biophys J 69(4): 1272-80, and Gonzalez, J. E. and R. Y. Tsien (1997) “Improved indicators of cell membrane potential that use fluorescence resonance energy transfer” Chem Biol 4(4): 269-77) in combination with instrumentation for measuring fluorescence changes such as the Voltage/Ion Probe Reader (VIPR®) (See, Gonzalez, J. E., K. Oades, et al. (1999) “Cell-based assays and instrumentation for screening ion-channel targets” Drug Discov Today 4(9): 431-439).
24 hours before the assay on VIPR, CHO cells endogenously expressing a NaV1.2 type voltage-gated NaV are seeded in 96-well poly-lysine coated plates at 60,000 cells per well. Other subtypes are performed in an analogous mode in a cell line expressing the NaV of interest. • 1) On the day of the assay, medium is aspirated and cells are washed twice with 225 μL of Bath Solution #2 (BS#2). • 2) A 15 uM CC2-DMPE solution is prepared by mixing 5 mM coumarin stock solution with 10% Pluronic 127 1:1 and then dissolving the mix in the appropriate volume of BS#2. • 3) After bath solution is removed from the 96-well plates, the cells are loaded with 80 μL of the CC2-DMPE solution. Plates are incubated in the dark for 30 minutes at room temperature. • 4) While the cells are being stained with coumarin, a […] solution in BS#2 is prepared. In addition to DiSBAC2(3), this solution should contain 0.75 mM ABSCl and […] (prepared from 10 mM EtOH stock, Sigma #V-5754). • 5) After 30 minutes, CC2-DMPE is removed and the cells are washed twice with 225 μL of BS#2. As before, the residual volume should be 40 μL. • 6) Upon removing the bath, the cells are loaded with 80 μL of the DiSBAC2(3) solution, after which test compound, dissolved in DMSO, is added to achieve the desired test concentration to each well from the drug addition plate and mixed thoroughly. The volume in the well should be roughly 121 μL. The cells are then incubated for 20-30 minutes. • 7) Once the incubation is complete, the cells are ready to be assayed on VIPR® with a sodium add back protocol. 120 μL of Bath solution #1 is added to stimulate the NaV dependent depolarization. […] was used as an antagonist positive control for block of the NaV channel.
Data are analyzed and reported as normalized ratios of background-subtracted emission intensities measured in the 460 nm and 580 nm channels. Background intensities are then subtracted from each assay channel. Background intensities are obtained by measuring the emission intensities during the same time periods from identically treated assay wells in which there are no cells. The response as a function of time is then reported as the ratios obtained using the following formula: […]
The data is further reduced by calculating the initial (Ri) and final (Rf) ratios. These are the average ratio values during part or all of the pre-stimulation period, and during sample points during the stimulation period. The response to the stimulus R=Rf/Ri is then calculated. […]

Sequence of NaV 1.8 channel (Q9Y5Y9 whole entry): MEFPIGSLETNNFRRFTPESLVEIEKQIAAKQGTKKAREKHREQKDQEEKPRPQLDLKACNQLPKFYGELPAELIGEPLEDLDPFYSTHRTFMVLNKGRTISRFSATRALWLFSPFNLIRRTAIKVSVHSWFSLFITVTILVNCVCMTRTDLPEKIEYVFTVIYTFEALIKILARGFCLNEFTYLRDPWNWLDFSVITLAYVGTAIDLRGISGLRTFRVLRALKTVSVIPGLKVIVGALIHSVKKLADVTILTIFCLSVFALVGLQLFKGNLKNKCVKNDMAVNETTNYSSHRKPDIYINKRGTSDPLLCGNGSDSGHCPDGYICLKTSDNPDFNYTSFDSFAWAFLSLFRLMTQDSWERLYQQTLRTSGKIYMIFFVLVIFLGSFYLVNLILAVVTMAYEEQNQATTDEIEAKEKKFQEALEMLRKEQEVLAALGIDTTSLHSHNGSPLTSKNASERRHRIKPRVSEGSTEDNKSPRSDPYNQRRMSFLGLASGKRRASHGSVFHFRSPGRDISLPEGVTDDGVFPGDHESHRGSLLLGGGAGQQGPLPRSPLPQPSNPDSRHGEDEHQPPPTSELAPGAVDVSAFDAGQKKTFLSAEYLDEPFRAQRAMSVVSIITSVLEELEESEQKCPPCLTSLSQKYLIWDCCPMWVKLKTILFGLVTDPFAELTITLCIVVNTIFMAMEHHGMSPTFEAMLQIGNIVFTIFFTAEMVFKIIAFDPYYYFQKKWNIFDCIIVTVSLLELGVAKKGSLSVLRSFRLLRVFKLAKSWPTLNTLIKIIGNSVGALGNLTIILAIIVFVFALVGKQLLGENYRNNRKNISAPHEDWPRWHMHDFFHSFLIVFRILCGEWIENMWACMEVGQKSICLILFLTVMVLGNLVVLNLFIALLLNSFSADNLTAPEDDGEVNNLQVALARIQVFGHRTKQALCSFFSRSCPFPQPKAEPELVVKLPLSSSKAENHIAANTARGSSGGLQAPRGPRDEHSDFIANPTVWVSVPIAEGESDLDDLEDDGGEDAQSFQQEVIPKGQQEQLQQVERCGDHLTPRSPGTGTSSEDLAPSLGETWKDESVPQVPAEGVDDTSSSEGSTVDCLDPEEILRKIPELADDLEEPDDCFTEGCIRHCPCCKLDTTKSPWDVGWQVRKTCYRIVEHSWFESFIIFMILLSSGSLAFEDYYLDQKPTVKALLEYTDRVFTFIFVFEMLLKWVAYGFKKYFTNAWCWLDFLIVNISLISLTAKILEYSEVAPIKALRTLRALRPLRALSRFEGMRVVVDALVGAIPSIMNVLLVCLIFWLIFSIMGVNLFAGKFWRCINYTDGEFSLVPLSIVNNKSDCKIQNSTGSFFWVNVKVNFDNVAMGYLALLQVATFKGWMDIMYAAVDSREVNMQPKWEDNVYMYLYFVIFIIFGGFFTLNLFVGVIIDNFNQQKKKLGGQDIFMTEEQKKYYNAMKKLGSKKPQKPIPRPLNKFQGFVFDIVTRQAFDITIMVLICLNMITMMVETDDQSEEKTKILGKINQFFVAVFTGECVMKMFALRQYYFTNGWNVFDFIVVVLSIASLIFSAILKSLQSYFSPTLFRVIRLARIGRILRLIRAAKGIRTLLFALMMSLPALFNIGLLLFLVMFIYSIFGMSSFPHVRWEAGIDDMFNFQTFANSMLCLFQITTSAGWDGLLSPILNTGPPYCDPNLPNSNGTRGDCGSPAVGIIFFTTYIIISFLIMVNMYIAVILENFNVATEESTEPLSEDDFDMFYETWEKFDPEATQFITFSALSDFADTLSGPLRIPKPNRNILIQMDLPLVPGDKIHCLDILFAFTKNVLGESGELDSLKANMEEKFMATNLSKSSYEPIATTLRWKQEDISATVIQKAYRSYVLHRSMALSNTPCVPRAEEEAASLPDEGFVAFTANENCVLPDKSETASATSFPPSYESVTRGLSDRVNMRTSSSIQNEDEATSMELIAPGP

IC50 [µM]	SMILES
> 10	Cc1ccc2c(N3CCC(NC(=O)C(O)C(C)C)CC3)nc(-c3ccccc3O)nc2c1 (centres unmarked) [Example 264]
2 to 10	CC(C)C[C@@H](O)C(=O)N1CCN(c2nc(-c3ccccc3O)nc3ccc(C#N)cc23)CC1 [Example 142, 4-[4-((R)-2-Hydroxy-4-methyl-pentanoyl)-piperazin-1-yl]-2-(2-hydroxy-phenyl)-quinazoline-6-carbonitrile]
2 to 10	Cc1ccc2c(N3CCN(C(=O)O[C@H]4CCOC4)CC3)nc(-c3ccccc3O)nc2c1 [Example 183]
< 2	Cc1ccc2c(N3CCN(C(=O)[C@H](O)CC(C)(C)C)CC3)nc(-c3c(O)cccc3F)nc2c1 [Example 135, (R)-1-(4-(2-(2-Fluoro-6-hydroxyphenyl)-7-methylquinazolin-4-yl)piperazin-1-yl)-2-hydroxy-4,4-dimethylpentan-1-one]
2 to 10	Cc1ccc2c(N3CCN(C(=O)OCC4CCOC4)CC3)nc(-c3c(O)cccc3F)nc2c1 (centres unmarked) [Example 162, (Tetrahydrofuran-3-yl)methyl 4-(2-(2-fluoro-6-hydroxyphenyl)-7-methylquinazolin-4-yl)piperazine-1-carboxylate]
2 to 10	Cc1ccc2c(N3CC[C@@H](CNC(=O)[C@H]4CCCO4)C3)nc(-c3ccccc3O)nc2c1 [Example 310, (2R)-Tetrahydro-N—(((S)-1-(2-(2-hydroxyphenyl)-7-methylquinazolin-4-yl)pyrrolidin-3-yl)methyl)furan-2-carboxamide]
> 10	Cc1ccc2c(N3CCC(NC(=O)C(C)(C)O)CC3)nc(-c3ccccc3O)nc2c1 [Example 233, 2-Hydroxy-N-(1-(2-(2-hydroxyphenyl)-7-methylquinazolin-4-yl)piperidin-4-yl)-2-methylpropanamide]
> 10	Cc1ccc2c(N3CCN(C(=O)OCc4ccncc4)CC3)nc(-c3ccccc3O)nc2c1 [Example 152, (Pyridin-4-yl)methyl 4-(2-(2-hydroxyphenyl)-7-methylquinazolin-4-yl)piperazine-1-carboxylate]
> 10	Cc1ccc2c(N3CC(NC(=O)OCC4CCOC4)C3)nc(-c3ccccc3O)nc2c1 (centres unmarked) [Example 416]
> 10	Cc1ccc2c(N3CCC[C@@H](CNC(=O)O[C@H]4CCOC4)C3)nc(-c3ccccc3O)nc2c1 [Example 215, (S)-Tetrahydrofuran-3-yl ((S)-1-(2-(2-hydroxyphenyl)-7-methylquinazolin-4-yl)piperidin-3-yl)methylcarbamate]
> 10	CCC(O)(CC)C(=O)NC1CCN(c2nc(-c3ccccc3O)nc3cc(C)ccc23)CC1 [Example 234, 2-Ethyl-2-hydroxy-N-(1-(2-(2-hydroxyphenyl)-7-methylquinazolin-4-yl)piperidin-4-yl)butanamide]
2 to 10	Cc1ccc2c(N3CC(CNC(=O)OCC(C)C)C3)nc(-c3ccccc3O)nc2c1 [Example 418]
2 to 10	COCCOC(=O)NC[C@@H]1CCCN(c2nc(-c3ccccc3O)nc3cc(C)ccc23)C1 [Example 257, 2-Methoxyethyl ((S)-1-(2-(2-hydroxyphenyl)-7-methylquinazolin-4-yl)piperidin-3-yl)methylcarbamate]
> 10	CC[C@H](O)C(=O)NC1CCN(c2nc(-c3ccccc3O)nc3ccccc23)CC1 [Example 237, (2S)-2-Hydroxy-N-(1-(2-(2-hydroxyphenyl)quinazolin-4-yl)piperidin-4-yl)butanamide]
> 10	CC(O)(C(=O)NC1CCN(c2nc(-c3ccccc3O)nc3ccccc23)CC1)C(F)(F)F (centres unmarked) [Example 239, 2-(Trifluoromethyl)-2-hydroxy-N-(1-(2-(2-hydroxyphenyl)quinazolin-4-yl)piperidin-4-yl)propanamide]
> 10	CCC(O)(CC)C(=O)N1CCN(c2nc(-c3ccccc3O)nc3ccccc23)CC1 [Example 115, 2-Ethyl-2-hydroxy-1-(4-(2-(2-hydroxyphenyl)quinazolin-4-yl)piperazin-1-yl)butan-1-one]
2 to 10	Cc1ccc2c(N3CCN(C(=O)[C@H]4CCCO4)CC3)nc(-c3ccccc3O)nc2c1 [Example 187]

— US7928107B2, “Quinazolines useful as modulators of ion channels” (Vertex Pharmaceuticals Incorporated, priority 2004, dated 2011)
